Read-outs that look alike come from different tables or passages of the source.
Assays:
[1] = pKa of unformulated amine lipid by TNS fluorescence; assay type: physicochemical
Description: The pKa of each amine lipid was determined according to the method in Jayaraman, et al. (Angew Chem Int Ed Engl 51(34), 2012, 8529-8533) with the following adaptations. The pKa was determined for unformulated amine lipid in ethanol. Lipid stock solutions (2.94 mM) were diluted into Sodium Phosphate Buffers (0.1 M, Boston Bioproducts) of different pH (pH-range: 4.5-9.0) yielding a final lipid concentration of approx. 100 μM. The test samples were supplemented with TNS {6-(p-Toluidino)-2-naphthalenesulfonic acid sodium salt}, incubated and the fluorescence intensity was measured using excitation and emission wavelengths of 321 nm and 448 nm, respectively. The recorded data were normalized and the respective pKa values were derived from sigmoidal fitting.

rat TTR gene = assay: In vivo editing of TTR in rat liver after LNP delivery (NGS, % editing); parameters: species or system rat (Sprague-Dawley)
Description: LNPs were prepared using various amine lipids in a 4-component lipid system consisting of an ionizable lipid (e.g., an amine lipid), DSPC, cholesterol and a PEG lipid (e.g., PEG2K-DMG, C13 Ether, C14 Ether). In assays for percent liver editing in rats, Cas9 mRNA and chemically modified sgRNA targeting a rat sequence were formulated in LNPs, at either a 1:1 w/w ratio or a 1:2 w/w sgRNA:Cas9 mRNA ratio.
The lipid components were dissolved in 100% ethanol with the lipid component molar ratios described below. The chemically modified sgRNA and Cas9 mRNA were combined and dissolved in 25 mM citrate, 100 mM NaCl, pH 5.0, resulting in a concentration of total RNA cargo of approximately 0.45 mg/mL. The LNPs were formulated with an N:P ratio of about 6, with the ratio of chemically modified sgRNA:Cas9 mRNA at either a 1:1 or 1:2 w/w ratio as described below.
The LNPs were formed by an impinging jet mixing of the lipid in ethanol with two volumes of RNA solution and one volume of water. First, the lipid in ethanol is mixed through a mixing cross with the two volumes of RNA solution. Then, a fourth stream of water is mixed with the outlet stream of the cross through an inline tee. (See, e.g., WO2016010840, FIG. 2). The LNPs were held for 1 hour at room temperature, and further diluted with water (approximately 1:1 v/v). Diluted LNPs were buffer exchanged into 50 mM Tris, 45 mM NaCl, 5% (w/v) sucrose, pH 7.5 (TSS) and concentrated as needed by methods known in the art. The resulting mixture was then filtered using a 0.2 μm sterile filter. The final LNP was stored at 4° C. or −80° C. until further use.
Sprague-Dawley female rats, ranging from 6-10 weeks of age were used in each study. Animals were weighed and dosed based on individual body weight measured the morning of dosing. LNPs were dosed via the lateral tail vein in a volume of 2 mL per kilogram of animal body weight. The animals were periodically observed for adverse effects for at least 24 hours post dose.
For studies measuring in vivo editing in liver, Sprague-Dawley female rats were dosed at 0.1 mpk or 0.03 mpk, unless otherwise noted. Animals were euthanized at 6 or 7 days by carbon dioxide asphyxiation and a heart clip or by ex sanguination via cardiac puncture under isoflourane anesthesia. Blood was collected into serum separator tubes. Liver tissue was collected. Genomic DNA was isolated from the liver tissue for editing measurement by Next-Generation Sequencing (NGS).
In brief, to quantitatively determine the efficiency of editing at the target location in the genome, genomic DNA was isolated and deep sequencing was utilized to identify the presence of insertions and deletions introduced by gene editing.
PCR primers were designed around the target site (e.g., TTR), and the genomic area of interest was amplified. Additional PCR was performed according to the manufacturer's protocols (Illumina) to add the necessary chemistry for sequencing. The amplicons were sequenced on an Illumina MiSeq instrument. The reads were aligned to the […] after eliminating those having low quality scores. The resulting files containing the reads were mapped to the reference genome (BAM files), where reads that overlapped the target region of interest were selected and the number of wild type reads versus the number of reads which contain an insertion, substitution, or deletion was calculated.
The editing percentage (e.g., the “indel efficiency” or “percent indels” or “% editing” or “% indel”) can be defined as the total number of sequence reads with insertions or deletions over the total number of sequence reads, including wild type.
In vivo editing efficiency for materials delivered with formulations including various amine lipid (or ionizable lipid) compounds in Experiments 1 through 14 as described in Tables 3 and 4 was assessed. Editing was measured using G000534 (SEQ ID NO: 5) which targets the rat TTR gene. […]

[2] = sodium phosphate buffer, Table 2, unformulated amine lipid, TNS, read-out: Lipid pKa
[3] = Experiment 14, 0.03 mpk, LNP with C13 Ether
[4] = Experiment 7, 0.1 mpk, LNP with PEG2K-DMG

pKa [1, 2]	Compound	Mean % editing (rat TTR gene; [4])	further results
6.2	CCCCC/C=C\C/C=C\CCCCCCCC(=O)OCC(CCCCCCCCC(=O)OC(CCCC)CCCC)COC(=O)OCCCN(CC)CC (stereo not drawn) [Compound 21, 2-((((3-(diethylamino)propoxy)carbonyl)oxy)methyl)-11-(nonan-5-yloxy)-11-oxoundecyl (9Z,12Z)-octadeca-9,12-dienoate]	–	–
6.56	CCCCCCCCC(CCCCCCCC)OC(=O)CCCCCC(=O)OCC(COC(=O)CCCCCC(=O)OC(CCCCCCCC)CCCCCCCC)COC(=O)NCCN(CC)CC [Compound 38, O′1,O1-(2-((((2-(diethylamino)ethyl)carbamoyl)oxy)methyl)propane-1,3-diyl) 7,7′-di(heptadecan-9-yl) di(heptanedioate)]	–	Mean % editing (rat TTR gene; [3]): 19.4%
6.63	CCCCCCCCC(CCCCCCCC)C(=O)OCCCC(=O)OCC(COC(=O)CCCOC(=O)C(CCCCCCCC)CCCCCCCC)COC(=O)NCCN(CC)CC [Compound 39, [4-[2-[2-(diethylamino)ethylcarbamoyloxymethyl]-3-[4-(2-octyldecanoyloxy)butanoyloxy]propoxy]-4-oxo-butyl]2-octyldecanoate]	–	Mean % editing (rat TTR gene; [3]): 11.3%
–	CCCCCCCCOC(CCC(=O)OCC(COC(=O)CC(CCCC)CCCCCC)COC(=O)NCCN(CC)CC)OCCCCCCCC (stereo not drawn) [Compound 44, 3-((4,4-bis(octyloxy)butanoyl)oxy)-2-((((2-(diethylamino)ethyl)carbamoyl)oxy)methyl)propyl 3-butylnonanoate]	59.8%	–
–	CCCCCCCCOC(CCC(=O)OCC(COC(=O)CCCCCCCC)COC(=O)OCCCN(CC)CC)OCCCCCCCC (stereo not drawn) [Compound 45, 3-((4,4-bis(octyloxy)butanoyl)oxy)-2-((((3-(diethylamino)propoxy)carbonyl)oxy)methyl)propyl Nonanoate]	1.8%	–
–	CCCCCCCCOC(CCC(=O)OCC(COC(=O)CCCCCCCC)COC(=O)NCCN(CC)CC)OCCCCCCCC (stereo not drawn) [Compound 46, 3-((4,4-bis(octyloxy)butanoyl)oxy)-2-((((2-(diethylamino)ethyl)carbamoyl)oxy)methyl)propyl Nonanoate]	0.2%	–
–	CCCCCCCCOC(CCC(=O)OCC(COC(=O)OCCCN(CC)CC)COC(=O)C(CCCC)CCCCCC)OCCCCCCCC (stereo not drawn) [Compound 47, 3-((4,4-bis(octyloxy)butanoyl)oxy)-2-((((3-(diethylamino)propoxy)carbonyl)oxy)methyl)propyl 2-butyloctanoate]	56.3%	–
–	CCCCC/C=C\C/C=C\CCCCCCCC(=O)OCC(COC(=O)CCCC(=O)OC(CCCCCCCC)CCCCCCCC)COC(=O)OCC1CCCN(CC)C1 (stereo not drawn) [Compound 62, 3-((((1-ethylpiperidin-3-yl)methoxy)carbonyl)oxy)-2-((((9Z,12Z)-octadeca-9,12-dienoyl)oxy)methyl)propyl heptadecan-9-yl glutarate]	–	Mean % editing (rat TTR gene; Table 8, 0.03 mpk, LNP with C13 Ether): 28.0%
–	CCCCCCCCC(CCCCCCCC)OC(=O)CCCCC(=O)OCC(COC(=O)CCCCC(=O)OC(CCCCCCCC)CCCCCCCC)COC(=O)OCCCN1CCCC1 [Compound 69, di(heptadecan-9-yl) O,O′-(2-((((3-(pyrrolidin-1-yl)propoxy)carbonyl)oxy)methyl)propane-1,3-diyl) diadipate]	–	pKa ([1]; read-out: pKa): 6.4; Mean % editing in rat liver (rat TTR gene; NGS, dose 0.03 mpk, LNP with G000534 sgRNA and Cas9 mRNA 1:2 w/w, 3% C13 Ether (Compound 53: 3% PEG2K-DMG), N=5 (Compound 33: N=4)): 7.3%

— patent publication US20260337153A1, “IONIZABLE AMINE LIPIDS” (Intellia Therapeutics, Inc., priority 2023, published 2026)
